Reference: article PMC10116469 (Nature Communications, 2023)

What was measured:
[1] = molecular target: MPXV VP39 2′-O-RNA methyltransferase (Monkeypox virus, UniProt A0A7H0DN74); experiment: biochemical
[2] = test system: SARS-CoV-2 nsp14 N7-MTase; conditions: cited from earlier work
[3] = IC50, individual fit of data set 1
[4] = IC50, individual fit of data set 2
[5] = IC50 average (averaged IC50 values from independent measurement)

Sequence of MPXV VP39 2′-O-RNA methyltransferase (A0A7H0DN74 whole entry, looked up): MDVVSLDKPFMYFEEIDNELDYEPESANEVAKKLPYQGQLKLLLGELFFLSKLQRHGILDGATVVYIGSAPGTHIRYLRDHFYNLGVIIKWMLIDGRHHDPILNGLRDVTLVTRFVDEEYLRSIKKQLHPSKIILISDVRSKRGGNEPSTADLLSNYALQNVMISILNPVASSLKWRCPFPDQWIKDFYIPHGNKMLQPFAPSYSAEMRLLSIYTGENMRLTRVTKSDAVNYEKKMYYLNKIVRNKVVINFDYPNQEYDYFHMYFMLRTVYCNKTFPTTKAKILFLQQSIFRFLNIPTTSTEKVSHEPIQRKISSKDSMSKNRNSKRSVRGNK

| Compound | HillSlope, individual fit of data set 1 [1] | HillSlope, individual fit of data set 2 [1] | LogIC50, fit of all data points [1] | LogIC50, individual fit of data set 1 [1] | LogIC50, individual fit of data set 2 [1] | IC50 ([1]; IC50 (mean ± SEM)) | IC50 ([1]; IC50, fit of all data points) | IC50 [1, 3] | IC50 [1, 4] | IC50 [1, 5] | IC50 ([1]; IC50) | inhibition of SARS-CoV-2 nsp14 [2] |
| --- | --- | --- | --- | --- | --- | --- | --- | --- | --- | --- | --- | --- |
| Nc1ncnc2c1c(C#Cc1ccccc1)cn2[C@@H]1O[C@H](CSCC[C@H](N)C(=O)O)[C@@H](O)[C@H]1O [TO427] | -1.507 | -1.605 | -0.9412 | -0.9395 | -0.9422 | 0.115 ± 0.0004 µM | 0.114 µM | 0.115 µM | 0.114 µM | 0.115 µM | – | – |
| Nc1ncnc2c1c(C#Cc1cccc3ccccc13)cn2[C@@H]1O[C@H](CSCC[C@H](N)C(=O)O)[C@@H](O)[C@H]1O [TO494] | -1.676 | ~ -5.860 | -0.9386 | -1.017 | ~ -0.7109 | – | 0.115 µM | 0.0961 µM | – | 0.145 µM | – | – |
| Nc1ncnc2c1c(I)cn2[C@@H]1O[C@H](CSCC[C@H](N)C(=O)O)[C@@H](O)[C@H]1O [TO1119] | -1.304 | -1.575 | -0.8937 | -0.9194 | -0.8669 | – | 0.128 µM | 0.12 µM | 0.136 µM | – | 0.128 µM | – |
| Nc1ncnc2c1ncn2[C@@H]1O[C@H](C[C@@H](N)CC[C@H](N)C(=O)O)[C@@H](O)[C@H]1O [sinefungin, reference compound] | -0.961 | -0.8657 | 0.3693 | 0.3792 | 0.3552 | – | 2.34 µM | 2.39 µM | 2.27 µM | 2.33 µM | 2.3 µM | – |
| Nc1ncnc2c1c(C#Cc1ccc3ccccc3c1)cn2[C@@H]1O[C@H](CSCC[C@H](N)C(=O)O)[C@@H](O)[C@H]1O [TO504] | -1.768 | -1.833 | -1.107 | -1.131 | -1.08 | – | 0.0781 µM | 0.0739 µM | 0.0832 µM | 0.079 µM | – | – |
| C=Cc1cn([C@@H]2O[C@H](CSCC[C@H](N)C(=O)O)[C@@H](O)[C@H]2O)c2ncnc(N)c12 [TO1116] | -0.9545 | -1.033 | -0.836 | -0.8617 | -0.8127 | – | 0.146 µM | 0.138 µM | 0.154 µM | 0.146 µM | – | – |
| Nc1ncnc2c1c(C#Cc1nc3ccccc3[nH]1)cn2[C@@H]1O[C@H](CSCC[C@H](N)C(=O)O)[C@@H](O)[C@H]1O [TO500] | -1.441 | -1.353 | -0.7728 | -0.7814 | -0.7635 | – | 0.169 µM | 0.165 µM | 0.172 µM | 0.169 µM | – | – |
| CCc1cn([C@@H]2O[C@H](CSCC[C@H](N)C(=O)O)[C@@H](O)[C@H]2O)c2ncnc(N)c12 [TO1111] | -1.277 | -1.517 | -1.058 | -1.122 | -0.9871 | – | 0.0875 µM | 0.0755 µM | 0.103 µM | 0.089 µM | – | – |
| Nc1ncnc2c1c(C#Cc1cnc3ccccc3c1)cn2[C@@H]1O[C@H](CSCC[C@H](N)C(=O)O)[C@@H](O)[C@H]1O [TO507] | -1.446 | -1.972 | -0.9412 | -0.9877 | -0.8836 | – | 0.114 µM | 0.103 µM | 0.131 µM | 0.117 µM | – | nanomolar inhibitors |
